Data: article PMC10485906, “Development of a Dihydroquinoline–Pyrazoline GluN2C/2D-Selective Negative Allosteric Modulator of the N-Methyl-D-aspartate Receptor” (ACS Chemical Neuroscience, 2023)

Legend:
Format in all cases: cell-based
GluN1/GluN2A [1] = molecular target: T1, GluN1/GluN2A (Rattus norvegicus, UniProt P35439+Q00959); test: Two-electrode voltage-clamp recordings, Xenopus laevis oocytes, GluN1/GluN2A; settings: 100 μM glutamate, 30 μM glycine; for IC50: read-out: IC50 GluN2A [95% CI]; for remaining activity at 30 µM: 30 μM test compound, mean ± SEM, read-out: I 30 μM / I control GluN2A
T1 construct: expressed in transfected cells; host or cells: Xenopus laevis oocytes (cRNA injection)
T1 sequence (Q00959 23-1464, other chains not shown): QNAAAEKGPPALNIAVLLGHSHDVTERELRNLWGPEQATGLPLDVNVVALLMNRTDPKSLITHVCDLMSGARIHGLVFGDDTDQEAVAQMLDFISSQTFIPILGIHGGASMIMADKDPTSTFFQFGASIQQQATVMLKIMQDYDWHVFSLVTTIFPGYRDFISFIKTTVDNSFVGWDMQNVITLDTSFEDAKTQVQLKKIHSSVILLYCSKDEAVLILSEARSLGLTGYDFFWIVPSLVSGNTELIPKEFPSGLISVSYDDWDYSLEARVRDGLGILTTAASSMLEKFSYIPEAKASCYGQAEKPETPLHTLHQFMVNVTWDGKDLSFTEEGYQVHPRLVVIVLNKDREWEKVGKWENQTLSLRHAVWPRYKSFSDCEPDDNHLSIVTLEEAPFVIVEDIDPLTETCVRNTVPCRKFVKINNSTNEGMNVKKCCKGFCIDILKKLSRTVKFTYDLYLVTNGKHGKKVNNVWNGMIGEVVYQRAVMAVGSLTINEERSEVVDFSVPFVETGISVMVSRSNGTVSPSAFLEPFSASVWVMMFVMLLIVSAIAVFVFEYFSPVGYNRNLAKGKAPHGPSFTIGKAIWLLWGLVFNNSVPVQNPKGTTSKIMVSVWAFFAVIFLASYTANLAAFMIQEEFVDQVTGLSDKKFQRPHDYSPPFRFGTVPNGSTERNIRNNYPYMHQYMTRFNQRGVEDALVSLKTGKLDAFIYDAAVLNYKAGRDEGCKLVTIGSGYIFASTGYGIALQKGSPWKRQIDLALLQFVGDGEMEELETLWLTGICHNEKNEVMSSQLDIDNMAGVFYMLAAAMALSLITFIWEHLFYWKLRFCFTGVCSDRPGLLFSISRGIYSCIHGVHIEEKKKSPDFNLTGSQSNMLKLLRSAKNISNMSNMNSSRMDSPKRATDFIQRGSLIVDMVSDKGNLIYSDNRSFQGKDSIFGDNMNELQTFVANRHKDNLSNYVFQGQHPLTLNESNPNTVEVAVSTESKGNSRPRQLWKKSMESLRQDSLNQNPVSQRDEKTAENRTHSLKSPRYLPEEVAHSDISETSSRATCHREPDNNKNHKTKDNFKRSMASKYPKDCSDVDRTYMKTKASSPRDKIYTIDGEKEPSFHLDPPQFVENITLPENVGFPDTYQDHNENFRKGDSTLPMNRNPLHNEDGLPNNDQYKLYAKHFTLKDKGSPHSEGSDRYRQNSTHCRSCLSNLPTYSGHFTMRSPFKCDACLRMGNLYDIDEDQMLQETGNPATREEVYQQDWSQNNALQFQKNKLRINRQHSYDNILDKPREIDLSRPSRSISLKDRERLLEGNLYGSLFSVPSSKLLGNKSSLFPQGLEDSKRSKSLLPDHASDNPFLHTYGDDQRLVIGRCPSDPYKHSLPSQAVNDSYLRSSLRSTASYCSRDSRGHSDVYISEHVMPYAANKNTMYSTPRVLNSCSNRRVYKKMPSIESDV
Method: (§1) All target compounds were evaluated for NMDAR antagonism using two-electrode voltage-clamp recordings from Xenopus laevis oocytes coexpressing recombinant GluN1 and GluN2A-D subunits (Table 1).[32],[42],[33] All analogues were assessed as either a racemic (2b, 2e–2r) or diastereomeric (2d) mixture to simplify purification and streamline in vitro analysis. […] Moreover, as illustrated by the significant loss of NMDAR activity observed with nitrile 2e, the DQP allosteric site necessitated an H-bond donor/acceptor relationship at the carboxylate position. […] The loss of NMDAR activity observed with the trifluoro analogue 2j (Table S1) reinforced the necessity for an H-bond donor/acceptor relationship to maintain allosteric binding and established that fluorine substitution alone is ineffective. […] A single methyl substitution of the amide in compound 2q improved selectivity against GluN2A and had similar potency as 2a, whereas dual methyl substitution reduced potency (2r). We expect that this is likely due to the ability of the […] of the amide to accept hydrogen bonds while the amide can readily donate a proton.
(§2) Unfertilized Xenopus laevis oocytes were obtained from Ecocyte (Austin, TX), or ovaries were purchased from Xenopus 1 (Dexter, MI) and oocytes prepared as previously described.[42],[47] Two-electrode voltage-clamp recordings were performed on oocytes expressing recombinant rat GluN1/GluN2A, GluN1/GluN2B, GluN1/GluN2C, or GluN1/GluN2D. cDNAs for rat GluN1-1a (referred to as GluN1; NCBI Reference Sequence NM_017010.2), GluN2A (NM_012573.4), GluN2B (NM_012574.1), GluN2C (NM_012575.3), and GluN2D (NM_022797.2) were provided by Dr. S. Heinemann from the Salk Institute, Dr. S. Nakanishi from Kyoto University, and Dr. P. Seeburg from the University of Heidelberg. Oocyte isolation, cRNA synthesis, and cRNA injections were performed as previously described.[32],[33],[47] Briefly, Xenopus laevis oocytes were injected with 5–10 ng of cRNA in RNase-free water with the GluN1:GluN2 ratio ranging from 1:1 to 1:5. Oocytes were incubated at 15–19 °C in Barth’s solution consisting of (in mM) 88 NaCl, 1 KCl, 2.4 NaHCO3, 10 HEPES, 0.82 MgSO4, 0.33 Ca(NO3)2, and 0.41 CaCl2 supplemented with 100 μg/mL gentamycin, 40 μg/mL streptomycin, and 50 μg/mL penicillin. Recordings were performed 2–4 days after injection with extracellular recording solution containing (in mM) 90 NaCl, 1 KCl, 10 HEPES, 0.5 BaCl2, and 0.01 EDTA at pH 7.4 adjusted with NaOH. To prevent a gradual increase in current response over the course of the experiment, some oocytes expressing GluN1/GluN2A were injected with 20–50 nL of 2–50 mM K-BAPTA. Concentration–response curves for test compounds were generated by applying a maximally effective concentration of glutamate (100 μM) and glycine (30 μM), followed by glutamate and glycine with variable concentrations of test compounds up to 30 μM. The test compounds were prepared as 20 mM stock solutions in DMSO and diluted to the final concentration in recording solution. The DMSO content was 0.05–0.5% (v/v). […] Methods for off-target analysis are given in the Supporting Information.
(§3) Confidence intervals were determined for the log(IC50). The time course of relaxation during inhibitor application or deactivation following rapid removal of NMDA or glutamate was fitted by the equation [drawing 5] 2

GluN1/GluN2B [2] = molecular target: T2, GluN1/GluN2B (Rattus norvegicus, UniProt P35439+Q00960); test: Two-electrode voltage-clamp recordings, Xenopus laevis oocytes, GluN1/GluN2B; settings: 100 μM glutamate, 30 μM glycine; for remaining activity at 30 µM: 30 μM test compound, mean ± SEM, read-out: I 30 μM / I control GluN2B; for IC50: read-out: IC50 GluN2B [95% CI]
T2 construct: GluN2B (NM_012574.1), GluN2C (NM_012575.3), and GluN2D (NM_022797.2) were provided by; expressed in transfected cells; host or cells: Xenopus laevis oocytes (cRNA injection)
T2 sequence (Q00960 27-1482, other chains not shown): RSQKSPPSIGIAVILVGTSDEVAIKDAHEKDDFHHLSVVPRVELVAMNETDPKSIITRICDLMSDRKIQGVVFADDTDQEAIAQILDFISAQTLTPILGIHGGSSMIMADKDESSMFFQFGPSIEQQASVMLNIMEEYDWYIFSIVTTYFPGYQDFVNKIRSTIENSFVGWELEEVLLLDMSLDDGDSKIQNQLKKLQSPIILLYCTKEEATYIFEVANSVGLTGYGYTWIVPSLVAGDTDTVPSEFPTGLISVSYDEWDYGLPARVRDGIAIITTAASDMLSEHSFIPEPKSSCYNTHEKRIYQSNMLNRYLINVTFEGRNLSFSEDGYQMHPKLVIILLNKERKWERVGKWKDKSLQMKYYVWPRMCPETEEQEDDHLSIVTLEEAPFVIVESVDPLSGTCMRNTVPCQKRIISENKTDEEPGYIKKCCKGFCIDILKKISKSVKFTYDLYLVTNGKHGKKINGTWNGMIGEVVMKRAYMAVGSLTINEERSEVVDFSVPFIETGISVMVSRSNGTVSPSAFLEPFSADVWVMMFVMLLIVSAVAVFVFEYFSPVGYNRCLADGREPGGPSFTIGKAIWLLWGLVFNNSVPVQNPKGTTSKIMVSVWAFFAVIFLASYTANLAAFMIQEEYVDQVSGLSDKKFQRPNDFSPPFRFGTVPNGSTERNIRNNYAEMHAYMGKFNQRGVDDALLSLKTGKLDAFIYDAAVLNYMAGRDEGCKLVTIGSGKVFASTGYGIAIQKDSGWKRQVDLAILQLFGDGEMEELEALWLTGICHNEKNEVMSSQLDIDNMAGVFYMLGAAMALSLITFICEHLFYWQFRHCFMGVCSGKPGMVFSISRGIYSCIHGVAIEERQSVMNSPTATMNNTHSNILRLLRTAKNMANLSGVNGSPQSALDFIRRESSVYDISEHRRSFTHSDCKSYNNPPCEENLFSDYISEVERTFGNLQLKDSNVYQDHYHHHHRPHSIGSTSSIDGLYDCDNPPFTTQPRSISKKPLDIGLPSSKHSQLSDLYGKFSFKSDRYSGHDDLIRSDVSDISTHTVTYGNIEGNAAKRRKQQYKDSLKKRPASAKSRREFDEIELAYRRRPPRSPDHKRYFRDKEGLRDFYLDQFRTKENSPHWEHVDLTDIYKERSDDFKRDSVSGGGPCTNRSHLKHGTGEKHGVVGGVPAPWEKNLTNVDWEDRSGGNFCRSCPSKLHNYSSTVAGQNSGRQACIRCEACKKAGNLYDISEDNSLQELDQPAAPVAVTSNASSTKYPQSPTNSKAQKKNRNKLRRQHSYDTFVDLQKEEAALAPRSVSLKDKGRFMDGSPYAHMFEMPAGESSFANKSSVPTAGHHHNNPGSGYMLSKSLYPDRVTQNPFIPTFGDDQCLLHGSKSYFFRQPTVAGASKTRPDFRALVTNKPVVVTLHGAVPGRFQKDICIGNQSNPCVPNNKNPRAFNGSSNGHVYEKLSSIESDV
Method: as §1, §2, §3

GluN1/GluN2C [3] = molecular target: GluN1/GluN2C (Rattus norvegicus, UniProt P35439+Q00961); test: Two-electrode voltage-clamp recordings, Xenopus laevis oocytes, GluN1/GluN2C; parameters: GluN2B (NM_012574.1), GluN2C (NM_012575.3), and GluN2D (NM_022797.2) were provided by; expressed in transfected cells; host or cells: Xenopus laevis oocytes (cRNA injection); settings: 100 μM glutamate, 30 μM glycine; for IC50: read-out: IC50 GluN2C [95% CI]; for remaining activity at 30 µM: 30 μM test compound, mean ± SEM, read-out: I 30 μM / I control GluN2C
GluN1/GluN2C (Rattus norvegicus, UniProt P35439+Q00961), sequence (Q00961 20-1237, other chains not shown): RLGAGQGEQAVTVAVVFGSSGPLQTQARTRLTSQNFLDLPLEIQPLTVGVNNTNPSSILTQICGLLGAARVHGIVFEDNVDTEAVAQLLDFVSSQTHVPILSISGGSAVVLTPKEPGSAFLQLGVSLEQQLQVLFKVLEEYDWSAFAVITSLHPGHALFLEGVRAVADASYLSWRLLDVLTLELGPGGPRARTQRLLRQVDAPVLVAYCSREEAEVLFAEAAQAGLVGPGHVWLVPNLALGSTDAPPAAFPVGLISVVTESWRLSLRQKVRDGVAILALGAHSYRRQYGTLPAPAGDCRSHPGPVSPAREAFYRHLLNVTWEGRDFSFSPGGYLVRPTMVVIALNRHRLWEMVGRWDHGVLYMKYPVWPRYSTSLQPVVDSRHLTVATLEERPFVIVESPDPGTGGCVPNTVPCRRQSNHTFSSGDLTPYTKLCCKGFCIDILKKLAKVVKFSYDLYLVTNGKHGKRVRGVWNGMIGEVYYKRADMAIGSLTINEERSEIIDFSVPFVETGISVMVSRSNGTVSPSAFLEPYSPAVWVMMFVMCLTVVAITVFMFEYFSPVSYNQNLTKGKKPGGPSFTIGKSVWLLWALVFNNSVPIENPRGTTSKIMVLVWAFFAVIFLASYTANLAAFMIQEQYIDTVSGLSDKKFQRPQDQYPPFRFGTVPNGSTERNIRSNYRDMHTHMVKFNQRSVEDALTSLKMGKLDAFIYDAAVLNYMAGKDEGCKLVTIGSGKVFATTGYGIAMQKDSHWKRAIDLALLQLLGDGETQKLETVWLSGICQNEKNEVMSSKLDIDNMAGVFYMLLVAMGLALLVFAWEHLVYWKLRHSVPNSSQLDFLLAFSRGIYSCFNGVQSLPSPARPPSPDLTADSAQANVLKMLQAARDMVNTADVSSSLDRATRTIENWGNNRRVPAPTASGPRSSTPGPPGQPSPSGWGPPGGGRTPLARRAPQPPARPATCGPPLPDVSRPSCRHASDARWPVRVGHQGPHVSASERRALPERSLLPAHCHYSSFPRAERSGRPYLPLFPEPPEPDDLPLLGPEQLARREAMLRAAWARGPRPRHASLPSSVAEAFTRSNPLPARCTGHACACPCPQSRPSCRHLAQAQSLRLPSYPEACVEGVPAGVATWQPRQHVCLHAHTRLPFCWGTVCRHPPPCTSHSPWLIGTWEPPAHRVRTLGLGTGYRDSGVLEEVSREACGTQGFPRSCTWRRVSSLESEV
Method: as §1, §2, §3

GluN1/GluN2C [4] = molecular target: GluN1/GluN2C (Rattus norvegicus, UniProt Q00961); test: as above; parameters: GluN2B (NM_012574.1), GluN2C (NM_012575.3), and GluN2D (NM_022797.2) were provided by; expressed in transfected cells; host or cells: Xenopus laevis oocytes (cRNA injection); settings: 100 μM glutamate, 30 μM glycine, mean ± SEM
GluN1/GluN2C (Rattus norvegicus, UniProt Q00961), sequence (Q00961 20-1237, other chains not shown): as above
Method: as §1, §2, §3

GluN1/GluN2D [5] = molecular target: GluN1/GluN2D (Rattus norvegicus, UniProt P35439+Q62645); test: Two-electrode voltage-clamp recordings, Xenopus laevis oocytes, GluN1/GluN2D; parameters: GluN2B (NM_012574.1), GluN2C (NM_012575.3), and GluN2D (NM_022797.2) were provided by; expressed in transfected cells; host or cells: Xenopus laevis oocytes (cRNA injection); settings: 100 μM glutamate, 30 μM glycine; for IC50: read-out: IC50 GluN2D [95% CI]; for remaining activity at 30 µM: 30 μM test compound, mean ± SEM, read-out: I 30 μM / I control GluN2D
Method: as §1, §2, §3

GluN1/GluN2D [6] = molecular target: GluN1/GluN2D (Rattus norvegicus, UniProt Q62645); test: as above; parameters: GluN2B (NM_012574.1), GluN2C (NM_012575.3), and GluN2D (NM_022797.2) were provided by; expressed in transfected cells; host or cells: Xenopus laevis oocytes (cRNA injection); settings: for Selectivity 2A IC50 / 2D IC50: GluN2D over GluN2A; for Selectivity 2B IC50 / 2D IC50: GluN2D over GluN2B
Method: as §1, §2, §3

GluN1/GluN2A [7] = molecular target: T3, GluN1/GluN2A (Rattus norvegicus, UniProt Q00959); test: Two-electrode voltage-clamp recordings, Xenopus laevis oocytes, GluN1/GluN2A; settings: tested at 3 μM; 100 μM glutamate, 30 μM glycine; mean ± SEM
T3 construct: expressed in transfected cells; host or cells: Xenopus laevis oocytes (cRNA injection)
Method: as §1, §2, §3

GluN1/GluN2B [8] = molecular target: T4, GluN1/GluN2B (Rattus norvegicus, UniProt Q00960); test: Two-electrode voltage-clamp recordings, Xenopus laevis oocytes, GluN1/GluN2B; settings: tested at 3 μM; 100 μM glutamate, 30 μM glycine; mean ± SEM
T4 construct: GluN2B (NM_012574.1), GluN2C (NM_012575.3), and GluN2D (NM_022797.2) were provided by; expressed in transfected cells; host or cells: Xenopus laevis oocytes (cRNA injection)
Method: as §1, §2, §3

IC50 (GluN1/GluN2A [1]) | remaining activity at 30 µM (GluN1/GluN2B [2]) | IC50 (GluN1/GluN2B [2]) | IC50 (GluN1/GluN2C [3]) | I / I control GluN2C (GluN1/GluN2C [4]; tested at 10 μM (footnote b)) | IC50 (GluN1/GluN2D [5]) | Selectivity 2A IC50 / 2D IC50 (GluN1/GluN2D [6]) | Selectivity 2B IC50 / 2D IC50 (GluN1/GluN2D [6]) | I / I control GluN2D (GluN1/GluN2D [6]; tested at 10 μM (footnote b), 100 μM glutamate, 30 μM glycine, mean ± SEM) | remaining activity at 30 µM (GluN1/GluN2A [1]) | remaining activity at 30 µM (GluN1/GluN2C [3]) | remaining activity at 30 µM (GluN1/GluN2D [5]) | I3 μM/Icontrol GluN2A (GluN1/GluN2A [7]) | I3 μM/Icontrol GluN2B (GluN1/GluN2B [8]) | I3 μM/Icontrol GluN2C (GluN1/GluN2C [4]; tested at 3 μM) | I3 μM/Icontrol GluN2D (GluN1/GluN2D [6]; tested at 3 μM, 100 μM glutamate, 30 μM glycine, mean ± SEM) | SMILES
25 µM | 57 ± 2.6% | 37 µM | 0.9 µM | 13 ± 1.3 ^b (1,8) % | 0.64 µM | 39 fold | 58 fold | 5.9 ± 1.6 ^b (1,8) % | – | – | – | – | – | – | – | O=C(O)CCCC(=O)N1N=C(c2c(-c3ccc(Cl)cc3)c3ccccc3[nH]c2=O)CC1c1ccc(Cl)cc1 (stereo not drawn) [2b]
15 µM | 48 ± 4% | 21 µM | 2.1 µM | – | 1.1 µM | 14 fold | 19 fold | – | 36 ± 5.2% | 16 ± 5% | 3.1 ± 0.59% | – | – | – | – | N[C@@H](CCC(=O)N1N=C(c2c(-c3ccc(Cl)cc3)c3ccccc3[nH]c2=O)CC1c1ccc(Cl)cc1)C(=O)O (stereo partly drawn) [2d]
– | 82 ± 2.4% | – | 99 µM | – | 28 µM | – | – | – | 94 ± 1.4% | 67 ± 2.6% | 46 ± 5% | – | – | – | – | N#CCCC(=O)N1N=C(c2c(-c3ccc(Cl)cc3)c3ccccc3[nH]c2=O)CC1c1ccc(Cl)cc1 (stereo not drawn) [2e]
22 µM | 48 ± 1.9% | 29 µM | 0.57 µM | – | 0.52 µM | 42 fold | 56 fold | – | 29 ± 4.1% | 2.3 ± 0.5% | 2.4 ± 0.56% | – | – | – | – | O=C(CCc1nnn[nH]1)N1N=C(c2c(-c3ccc(Cl)cc3)c3ccccc3[nH]c2=O)CC1c1ccc(Cl)cc1 (stereo not drawn) [2h]
– | 86 ± 2.3% | – | – | – | – | – | – | – | 96 ± 2.1% | 100 ± 2.2% | 86 ± 2.8% | – | – | – | – | O=C(N1N=C(c2c(-c3ccc(Cl)cc3)c3ccccc3[nH]c2=O)CC1c1ccc(Cl)cc1)C(F)(F)F (stereo not drawn) [2j]
– | – | – | 0.51 µM | – | 0.31 µM | – | – | – | – | – | – | 103 ± 2.5 (3, 16) % | 99 ± 2.4 (3, 12) % | 52 ± 2.1 (2, 12) % | 42 ± 3.5 (2, 13) % | O=C(O)CC(F)(F)C(=O)N1N=C(c2c(-c3ccc(Cl)cc3)c3ccccc3[nH]c2=O)C[C@@H]1c1ccc(Cl)cc1 [(R)-(+)-2i]
